Assay results as given in patent publication US6413930B1, “Use of cck-b receptor antagonists for the treatment of sleep disorders” (Glaxo Wellcome Spa, priority 1994, dated 2002).

System: old rats
Assay: Effect on sleep patterns (EEG pattern) in old rats
Format: in vivo
Conditions: single dose
Protocol: In these animals the EEG patterns are disturbed. Administration of an effective amount of a CCK-B antagonist to such an animal alters the EEG pattern towards the normal. These effects may be observed using standard procedures such as those described by H.Depoortere et al. Physiology & Behaviour 1993, 54, 785-793.
The ability of CCK-B antagonists to effect sleep patterns in old rats was measured by examining the effect of the compound on the EEG pattern using the procedures described by H Depoortere et al. Physiology & Behaviour 1993 54, 785-793.

For `O=C(Nc1ccccc1)NC1C(=O)N(CCN2CCOCC2)c2ccccc2N(CC23CC4CC(CC(C4)C2)C3)C1=O` (single isomer, unassigned; (-)) [Compound 2, (−) N-[1-(1-Adamantylmethyl)-2,4-dioxo-5-[2-(4-morpholino)ethyl]-2,3,4,5-tetrahydro-1H-benzodiazepin-3-yl]-N′-phenylurea], the “Dose that resulted in a significant improvement in total sleep time pattern” value (ip) was 0.5 µg/kg.
With `CC(CNCC(NC(=O)CCC(=O)O)c1ccccc1)(Cc1c[nH]c2ccccc12)NC(=O)OC1C2CC3CC(C2)CC1C3.CNCC(O)C(O)C(O)C(O)CO` (stereo not drawn) [Compound 4, (R-(R*, R*))4-((2-((3-(1H-indol-3-yl)-2-methyl-2-((tricyclo(3,3,1,1,3,7)dec-2yloxy)carbonyl)aminopropyl)amino)-1-phenylethyl)amino-4-oxo-butanoic acid meglumine salt] the “Dose that resulted in a significant improvement in total sleep time pattern” value (ip) was 5 µg/kg.
In the case of `Cc1cccc(NC(=O)NC2N=C(c3ccccc3)c3ccccc3N(C)C2=O)c1` (stereo not drawn) [Compound 3, N-(2,3-dihydro-1-methyl-2-oxo-5-phenyl-1H-1,4-benzodiazepin-3-yl]-N′-3-methylphenyl urea], the “Dose that resulted in a significant improvement in total sleep time pattern” value (ip) is reported as 5 µg/kg.
In the case of `CN(C)CCN1C(=O)C(NC(=O)Nc2ccccc2)C(=O)N(CC23CC4CC(CC(C4)C2)C3)c2ccccc21` (stereo not drawn) [Compound 6], the “Dose that resulted in a significant improvement in total sleep time pattern” value (ip) is reported as 0.5 µg/kg.
`O=C(Nc1cccc(C(=O)O)c1)NC1C(=O)N(CC23CC4CC(CC(C4)C2)C3)c2ccccc2N(c2ccccc2)C1=O` (stereo not drawn) [Compound 5, N-1[-(Adamantylmethyl)-2,4,-dioxo-5-phenyl-2,3,4,5-tetrahydro-1H-1,5-benzodiazepin-3-yl]-N′-(3-carboxyphenyl)urea] was tested, and the “Dose that resulted in a significant improvement in total sleep time pattern” value (ip) was 15 µg/kg.
For `O=C(Nc1ccccc1)NC1C(=O)N(CC23CC4CC(CC(C4)C2)C3)c2ccccc2N(c2ccccc2)C1=O` (single isomer, unassigned; (+)) [Compound 1, (+) N-phenyl-N′-[2,3,4,5-tetrahydro-2,4-dioxo-1-(1-adamantylmethyl)-5-phenyl-1H-1,5-benzodiazepin-3-yl]urea], the “Dose that resulted in a significant improvement in total sleep time pattern” value (ip and po) was 5 µg/kg.
